Data reported in US3987200A, “Method for increasing cardiac contractility” (Eli Lilly and Company, priority 1975, dated 1976).
Where a name gives a salt, the structure may show the parent alone.

Key:
LD50 in mice = conditions: mouse, in vivo
dogs = test: Cardiac and Blood Pressure Effects in dogs (Table I); format: in vivo; conditions: for Contractile Potency ED50 / Contractile Potency ED100: i.v. infusion; for Blood Pressure Change at Effective dose ED50 / Heart Rate Increase at Effective dose ED50 / Blood Pressure Change at Effective dose ED100 / Heart Rate Increase at Effective dose ED100: i.v.

| SMILES | LD50 (LD50 in mice) [mg/kg] | Contractile Potency ED50 (dogs) | Contractile Potency ED100 (dogs) | Blood Pressure Change at Effective dose ED50 (dogs; at ED50) [mm. Hg.] | Heart Rate Increase at Effective dose ED50 (dogs; at ED50) [Beats/minute] | Blood Pressure Change at Effective dose ED100 (dogs; at ED100) [mm. Hg.] | Heart Rate Increase at Effective dose ED100 (dogs; at ED100) [Beats/minute] | activity on contractile force (in words) (dogs; Table I data) | pressor activity (in words) (dogs; Table I data) | Contractile Potency ED50 (dogs; hydrochloride) [µg/kg/min] | Contractile Potency ED100 (dogs; hydrochloride) [µg/kg/min] | Blood Pressure Change at Effective dose ED50 (dogs; at ED50, hydrochloride) [mm. Hg.] | Heart Rate Increase at Effective dose ED50 (dogs; at ED50, hydrochloride) [Beats/minute] | Blood Pressure Change at Effective dose ED100 (dogs; at ED100, hydrochloride) [mm. Hg.] | Heart Rate Increase at Effective dose ED100 (dogs; at ED100, hydrochloride) [Beats/minute] |
| --- | --- | --- | --- | --- | --- | --- | --- | --- | --- | --- | --- | --- | --- | --- | --- |
| CC(Cc1ccc(O)c(O)c1)NCCCc1ccc(O)cc1 (racemic) [3,4-dihydroxy-N-[3-(4-hydroxyphenyl)-n-propyl]-α-methyl-β-phenethylamine hydrobromide] | 82.7 ± 5.72 | – | – | – | – | – | – | – | – | – | – | – | – | – | – |
| CC(CCc1ccc(O)cc1)NCCc1ccc(O)c(O)c1 (racemic) [dl-, 3,4-dihydroxy-N-[3-(4-hydroxyphenyl)-1-methyl-n-propyl]-β-phenethylamine] | 73.2 ± 3.68 | 3 ± 1 µg/kg/min | 10 ± 3 µg/kg/min | 3 ± 5 | 13 ± 4 | 6 ± 6 | 30 ± 4 | – | – | – | – | – | – | – | – |
| CC(CCc1ccc(O)cc1)NCCc1ccc(O)c(O)c1 (single isomer, unassigned) [d-, d-3,4-dihydroxy-N-[3-(4-hydroxyphenyl)-1-methyl-n-propyl]-β-phenethylamine] | – | 2.8 ± .3 µg/kg/min | 6.1 ± .4 µg/kg/min | 8 ± 2 | 11 ± 3 | 6 ± 3 | 28 ± 7 | – | – | – | – | – | – | – | – |
| CC(CCc1ccc(O)cc1)NCCc1ccc(O)c(O)c1 (single isomer, unassigned) [l-, l-3,4-dihydroxy-N-[3-(4-hydroxyphenyl)-1-methyl-n-propyl]-β-phenethylamine hydrochloride] | – | – | – | – | – | – | – | somewhat less active than either the d-isomer or dl-racemate on contractile force | marked pressor activity | 9 ± 2 | 25 ± 5 | 39 ± 3 | 8 ± 5 | 63 ± 4 | 28 ± 9 |
